Assay [1] has as its system differentiated 3T3-L1 adipocytes. In words: Lipid metabolism in differentiated 3T3-L1 adipocytes in vitro. It is filed as cell-based, Murine. The settings on record: incubated in the presence of OEA. As for the experimental part: The in vitro effect of OT on lipid metabolism in differentiated 3T3-L1 adipocytes was assayed as follows. Murine 3T3-L1 fibroblasts were differentiated towards a […] phenotype as previously described (Olson et al., 1997, Mol. Cell. Biol., 2425-2435). In brief, cells were cultured in Dulbecco's modified eagle medium (DMEM) with 4.5 g/l glucose supplemented with 10% heat-inactivated depleted calf serum (DCS) at 37° C./8% CO2. Cells were induced to differentiate, two days post confluence, by sequential incubations with: DMEM 4.5 g/l glucose, 10% fetal bovine serum (FCS) containing 1 μg/ml insulin, 0.25 μM dexamethasone and 0.5 mM isobutylmethylxanthane (IBMX) for 4 days; DMEM 4.5 g/l glucose, 10% FCS containing insulin alone for an additional 4 days; DMEM 4.5 g/l glucose, 10% FCS for 3-4 days. Differentiation was considered achieved when more than 90% of cells display an accumulation of large lipid droplets in their cytoplasm.

Another assay deals with HFD-induced obese rats. Briefly: High-fat diet-induced obesity rat model, subcutaneous infusion: body weight gain, food intake, body composition. Type of assay: in vivo. The settings on record: for food intake / body weight gain: 14 days; for body weight gain: not observed in pair-fed group. The procedure:
Another group of the above male Wistar rats were rendered obese as described above and were subcutaneously infused with saline or OT (NeoMPS®, Strasbourg, France) (50 nmol/day/rat) during 14 days.
The beneficial metabolic effects of OT administration were assayed in the same high-fat diet induced obesity model in rats as in Example 1 and in PPAR-alpha knockout mice (Lee et al., 1995, Mol. Cell. Biol., 15(6):3012-22). HFD-induced obese animals, saline or OT groups (see conditions under Example 1) were subcutaneously infused via minipumps (Alzet®, as above). OT was delivered at a dose of 50 nmol/day/rat during 14 days.
An EchoMRI-700 quantitative nuclear magnetic resonance (QMR) analyzer (Echo Medical Systems, Houston, Tex.) was used to measure total fat mass and lean body mass in rats at the beginning and the end of the treatment.
The beneficial metabolic effects of administration of an oxytocin derivative according to the invention (Carbetocin) were assessed in the same rat model of high-fat diet induced obesity as in Example 1. HFD-induced obese animals were subcutaneously infused via minipumps (Alzet®, as above) with saline or carbetocin (Bachem) (5 nmol/day/rat or 50 nmol/day/rat) during 14 days.
Body composition parameters were measured by quantitative nuclear magnetic resonance as described in Example 3 at the beginning and 10 days of treatment.

*1 amine or outer side, *2 acyl side, *3 side chain or, on linkers, in order; H or OH if unused. Where a SMILES comes first, the peptide text is derived from it. Bridges are numbered along the chain shown (N, C = ends). X1 = O=C(CCC[*:2])[*:1]

Regarding `CCCCCCCC/C=C\CCCCCCCC(=O)NCCO` [OEA, Oleoylethanolamide], in assay [1], the “mRNA expression of PPAR-alpha” value is “induce” and the “mRNA expression of most of the PPAR-alpha related genes (Acadm, Acox1, Ehhadh, Ucp3)” value is “induce”.

As to `CC[C@H](C)[C@@H]1NC(=O)[C@H](Cc2ccc(OC)cc2)NC(=O)CCCSC[C@@H](C(=O)N2CCC[C@H]2C(=O)N[C@@H](CC(C)C)C(=O)NCC(N)=O)NC(=O)[C@H](CC(N)=O)NC(=O)[C@H](CCC(N)=O)NC1=O` [carbetocin, Butyryl-Tyr(Me)-Ile-Gln-Asn-Cys-Pro-Leu-Gly-NH2] (Y(Me)IQNCPLG-NH2; linker N-5 via X1), in the assay on HFD-induced obese rats (s.c. 5 nmol/day), the food intake result was “decreased” and the body weight gain result was “decreased”. Besides, in the assay with HFD-induced obese rats (s.c. 50 nmol/day), the food intake entry is recorded as “decreased” and the body weight gain result is given as “decreased”. In the assay on HFD-induced obese rats (s.c. carbetocin (5 nmol/d and 50 nmol/d groups), 10 days, independent of food intake), the “fat mass (QMR)” value was “significant decrease”.

Source of the values: US9101569B2, “Methods for the treatment of insulin resistance” (UNIVERSITE DE GENEVE, priority 2010, dated 2015).
